Experimental data reported in ChEMBL document CHEMBL1275440, “In vitro activity of telavancin against resistant gram-positive bacteria” (2008).
Values after ≈ are worked out from the molar mass of the structure shown. Active and inactive are the calls of the source. No cut-off for these calls is given here.

Tests used:
Type in all cases: functional
[1] = test system: Enterococcus faecalis; assay: Antibacterial activity against vancomycin resistant Enterococcus faecalis VanB clinical isolate by broth microdilution method
[2] = test system: Streptococcus constellatus; assay: Antibacterial activity against Streptococcus constellatus clinical isolate by broth microdilution method
[3] = test system: Streptococcus oralis; assay: Antibacterial activity against Streptococcus oralis clinical isolate by broth microdilution method
[4] = Antibacterial activity against methicillin resistant coagulase-negative Staphylococcus hominis subsp. novobiosepticus clinical isolate by broth microdilution method
[5] = test system: Streptococcus pyogenes; assay: Antibacterial activity against Streptococcus pyogenes MED 2040 assessed as bacterial count at 2 ug/ml after 4 hrs by time-kill assay
[6] = test system: Enterococcus faecalis; assay: Antibacterial activity against Enterococcus faecalis ATCC 51575 assessed as bacterial count at 2 ug/ml after 2 hrs by time-kill assay
[7] = test system: Enterococcus faecalis; assay: Antibacterial activity against Enterococcus faecalis ATCC 51575 assessed as bacterial count at 4 ug/ml after 4 hrs by time-kill assay
[8] = test system: Enterococcus faecalis; assay: Antibacterial activity against Enterococcus faecalis ATCC 51575 assessed as bacterial count at 8 ug/ml after 8 hrs by time-kill assay
[9] = test system: Streptococcus agalactiae; assay: Antibacterial activity against Streptococcus agalactiae MED 2038 assessed as bacterial count at […] after 4 hrs by time-kill assay
[10] = test system: Streptococcus pneumoniae; assay: Antibacterial activity against multidrug resistant Streptococcus pneumoniae MED 1090 assessed as bacterial count at […] after 4 hrs by time-kill assay
[11] = test system: Streptococcus pneumoniae; assay: Antibacterial activity against multidrug resistant Streptococcus pneumoniae MED 1090 assessed as bacterial count at […] after 2 hrs by time-kill assay
[12] = test system: Streptococcus pneumoniae; assay: Antibacterial activity against multidrug resistant Streptococcus pneumoniae MED 1090 assessed as bacterial count at 0.03 ug/ml after 24 hrs by time-kill assay
[13] = test system: Staphylococcus epidermidis; assay: Antibacterial activity against methicillin resistant Staphylococcus epidermidis ATCC 35984 assessed as bacterial count at 16 ug/ml after 24 hrs by time-kill assay
[14] = test system: Staphylococcus epidermidis; assay: Antibacterial activity against methicillin resistant Staphylococcus epidermidis ATCC 35984 assessed as bacterial count at 8 ug/ml after 24 hrs by time-kill assay
[15] = test system: Staphylococcus aureus; assay: Antibacterial activity against methicillin resistant Staphylococcus aureus MED 1805 bloodstream isolate assessed as bacterial count at 16 ug/ml after 4 hrs by time-kill assay
[16] = test system: Staphylococcus aureus; assay: Antibacterial activity against methicillin resistant Staphylococcus aureus MED 1805 bloodstream isolate assessed as bacterial count at 4 ug/ml after 24 hrs by time-kill assay
[17] = test system: Staphylococcus aureus; assay: Antibacterial activity against methicillin resistant Staphylococcus aureus MED 1805 bloodstream isolate assessed as bacterial count at 4 ug/ml after 4 hrs by time-kill assay
[18] = test system: Staphylococcus aureus; assay: Antibacterial activity against methicillin resistant Staphylococcus aureus MED 1805 bloodstream isolate assessed as bacterial count at 2 ug/ml after 2 hrs by time-kill assay
[19] = test system: Staphylococcus aureus; assay: Antibacterial activity against methicillin resistant Staphylococcus aureus MED 2028 osteomyelitis isolate assessed as bacterial count at 16 ug/ml after 24 hr by time-kill assay
[20] = test system: Staphylococcus aureus; assay: Antibacterial activity against methicillin resistant Staphylococcus aureus MED 2028 osteomyelitis isolate assessed as bacterial count at 16 ug/ml after 8 hrs by time-kill assay
[21] = test system: Staphylococcus aureus; assay: Antibacterial activity against methicillin resistant Staphylococcus aureus MED 2028 osteomyelitis isolate assessed as bacterial count at 16 ug/ml after 4 hrs by time-kill assay
[22] = test system: Staphylococcus aureus; assay: Antibacterial activity against methicillin resistant Staphylococcus aureus MED 2028 osteomyelitis isolate assessed as bacterial count at 8 ug/ml after 8 hrs by time-kill assay

CCCCCCCCCCNCCN[C@@]1(C)C[C@H](O[C@H]2[C@H](Oc3c4cc5cc3Oc3ccc(cc3Cl)[C@@H](O)[C@@H](NC(=O)[C@@H](CC(C)C)NC)C(=O)N[C@@H](CC(N)=O)C(=O)N[C@H]5C(=O)N[C@H]3C(=O)N[C@H](C(=O)N[C@H](C(=O)O)c5cc(O)c(CNCP(=O)(O)O)c(O)c5-c5cc3ccc5O)[C@H](O)c3ccc(c(Cl)c3)O4)O[C@H](CO)[C@@H](O)[C@@H]2O)O[C@@H](C)[C@H]1O [TELAVANCIN]
MIC [1]: 0.25 µg/mL (≈ 0.142 µM) | MIC [2]: 0.015 µg/mL (≈ 0.00854 µM) | MIC50 [2]: inactive | MIC90 [2]: inactive | MIC [3]: 0.015 µg/mL (≈ 0.00854 µM) | MIC50 [3]: inactive | MIC90 [3]: inactive | MIC50 [4]: 0.5 µg/mL (≈ 0.285 µM) | MIC90 [4]: 1 µg/mL (≈ 0.57 µM) | log10CFU/ml [5]: 2.7 | log10CFU/ml [6]: 0.5 | log10CFU/ml [7]: 0.5 | log10CFU/ml [8]: 0.5 | log10CFU/ml [9]: 0.9 | log10CFU/ml [10]: 1.9 | log10CFU/ml [11]: 1.1 | log10CFU/ml [12]: 3.4 | log10CFU/ml [13]: 3.3 | log10CFU/ml [14]: 3.3 | log10CFU/ml [15]: 1.6 | log10CFU/ml [16]: 3.3 | log10CFU/ml [17]: 1.8 | log10CFU/ml [18]: 1 | log10CFU/ml [19]: 3.4 | log10CFU/ml [20]: 2.3 | log10CFU/ml [21]: 0.8 | log10CFU/ml [22]: 3.4
